# Tested on: Pityrosporum ovale from the Institut Pasteur, reference CIP 1363.82
# Test: Antifungal activity by the MIC (Minimum Inhibitory Concentration) method
# Type: cell-based
# Conditions: each compound at the concentration MIC/2; Sabouraud+Tween 40+glyceryl monooleate agar medium, 48 hours at 30° C
# Method: The activity of the combination of compound (A) and compound (B) was determined by a conventional method known as the MIC (Minimum Inhibitory Concentration), the MIC corresponding to the concentration at which a given […] inhibits the growth of a given strain under defined conditions.
# In this instance, strains of Pityrosporum ovale from the Institut Pasteur, reference CIP 1363.82, were used.
# An inoculum of a fresh culture, of 1 to 10×10^7 cells/ml, is introduced into a Sabouraud+Tween 40 at 10 g/l+glyceryl monooleate at 2.5 g/l agar medium, in the presence or absence of the compound or of the combination of the compounds to be studied, and incubated for 48 hours at 30° C.
row,Compound,growth of the microorganism
1,"CCCCNC(=O)OCC#CI [Compound A, 3-iodo-2-propynyl butyl carbamate]",identical to that of the control medium
2,"CCCCC(CC)COCC(O)CO (centres unmarked) [Compound B, 3-(2-ethylhexyloxy)-1,2-propanediol]",identical to that of the control medium

# From patent US6759051B2, “Cosmetic or dermatological composition comprising at least one alkynyl carbamate and at least one polyol” (L'Oreal, priority 1998, dated 2004)
